Consider three compounds from patent publication US11524950B2, “Treatment of immune-related and inflammatory diseases” (Celgene Corporation, priority 2012, dated 2022).

Where two headings read alike, the source gives them in different places.

The subject of one test is MDC. The experiment in a line: LPS-stimulated hPBMC cytokine production: MDC. The note with it: Homo sapiens; LPS 1 ng/ml, 18 hours. It counts as cell-based. The procedure: (§1) 50 ml human buffy coat was aliquoted 25 ml each into two 50 ml conical tubes and 25 ml sterile HBSS was added to each conical tube. The tubes were gently mixed by inverting. Fifteen ml of room temperature Ficoll-Paque Plus (GE Healthcare (location); cat #17-1440-02) was aliquoted into four 50 ml conical tubes. Then 25 ml of the Buffy coat/HBSS mixture was layered gently and slowly on top of the Ficoll. The samples were centrifuged at 450 rpm for 35 minutes. The top layered containing plasma was pipetted off and discarded. The interface containing mononuclear cells was transferred into two 50 ml conical tubes. Both conical tubes were filled to total volume of 50 ml with HBSS and centrifuged at 1200 rpm for 10 minutes. The cells were washed again in HBSS and spun at 1000 rpm for 10 minutes. Cell pellet was resuspended with 20 ml RPMI complete medium (RPMI/5% human sera/1× pen/strep/glut) and counted.
(§2) One hundred μl (2×10^6/ml) of hPBMCs were added to each well of a 96 well flat-bottom plate (final cell count=2×10^5/well) and incubated at 37° C. for 1 hour. […] compound was added to each test well and twenty μl medium containing 2.5% DMSO was added to each control well ([DMSO]final=0.25%) and plate was incubated for 1 hour at 37° C. Cells were then stimulated with […] 2.5 ng/ml LPS ([LPS]final=1 ng/ml) and incubated for 18 hours at 37° C.
(§3) 50 μl supernatant from each well was transferred into 3 new round-bottomed 96 well plates and stored at −20° C. for Luminex analysis. Duplicate wells were performed for each sample.
(§4) Supernatant samples were analyzed for cytokines in multiplex format according to the manufacturer's instructions (Millipore, Billerica, Ma 01821) using a Luminex IS100 instrument. IL-12 and GM-CSF analyses were done in a two-plex format using neat supernatants while all other cytokines were done in a multiplex format using supernatants diluted 1:20. Data analysis was performed using Upstate Beadview software. […] The IC50 were performed using GraphPad Prism v5.00. […]

For test [1], the system named is Human umbilical vascular endothelial cells. The experiment in a line: Human umbilical vascular endothelial cell invasion assay. It counts as cell-based. The note with it: for IC50: Homo sapiens; for VEGF-, bFGF-, and HGF-induced HUVEC invasion: dose-dependent. The procedure: Human Umbilical Vascular Endothelial Cell Invasion Assay: In the HUVEC invasion assay, the concentration of human fibronectin is optimized to provide a suitable protein structure for adherent cells to attach to the membrane and allow free migration in response to an angiogenic stimulus (e.g. VEGF, bFGF, or HGF) in the lower chamber of the insertplate. HUVECs were starved in 0.1% BSA EBM2 medium for 6 hours after washing with the same medium 3 times. The cells were then trypsinized and centrifuged to remove the remaining trypsin. Then ˜0.5 to 1×10^6 cells in 125 μL/well and 125 μL of […] serially diluted compounds (10, 1, 0.1, 0.01, 0.001 μM) were added to the upper chamber of the BD Falcon 24-well and 96-well insert plates in duplicate and incubated for […]. (The plates contain a fluorescence blocking, microporous [3.0 μm pore size] PET membrane that has been evenly coated with human fibronectin.) Seven hundred fifty microliters of a 1.33×stock solution of VEGF (final concentration of 25 ng/mL), bFGF (final concentration of 10 ng/mL), or HGF (final concentration of 25 ng/mL) were then added to the lower chamber. The cells were incubated for 22±1 hours at 37° C. The migrated cells were stained with calcein AM at […] in HBSS containing 2% FBS, using 500 μL/well in 24-well plates and 200 μL/well in 96-well plates. The plates were incubated at 37° C. for 90 minutes and read in a fluorescence plate reader.
The percentage inhibition of cell proliferation, tube formation, migration, and invasion was calculated by subtracting the result for unstimulated DMSO control from test sample results, averaging all replicates, and normalizing to the growth factor-stimulated DMSO control (0% inhibition). The IC50 values were calculated by using GraphPad Prism 5.0.

In the next test the test system is IL-6. The experiment in a line: LPS-stimulated hPBMC cytokine production: IL-6. As to conditions: Homo sapiens; LPS 1 ng/ml, 18 hours. In kind it is cell-based. How it is done:
as §1, §2, §3, §4

For the next test, the system named is MIP-1α. The experiment in a line: LPS-stimulated hPBMC cytokine production: MIP-1α. In kind it is cell-based. As to conditions: Homo sapiens. How it is done: as §1, §2, §3, §4
The subject of another test is IL-1β. The experiment in a line: LPS-stimulated hPBMC cytokine production: IL-1β. It counts as cell-based. As to conditions: Homo sapiens; LPS 1 ng/ml, 18 hours. How it is done:
as §1, §2, §3, §4

In another test the test system is IL-10. The experiment in a line: LPS-stimulated hPBMC cytokine production: IL-10 enhancement. It counts as cell-based, human. As to conditions: at 0.1 μM. The procedure:
as §1, §2, §3, §4

Another test concerns NK cell IFN-γ production. The experiment in a line: NK IgG-induced interferon-gamma (IFN-gamma) assay. It counts as cell-based. The note with it: Homo sapiens, 48 h. How it is done:
NK cells from healthy donors were isolated from buffy coat blood by negative selection using the RosetteSep NK cell enrichment cocktail (Stem Cell Technologies, Vancouver, BC) prior to Ficoll-Hypaque (Fisher Scientific Co LLC, PA) density gradient centrifugation following the manufacturers' instructions. CD56+NK cells were isolated to ˜85% purity, as determined by flow cytometry (BD Biosciences, CA).
Ninety-six-well flat-bottom plates were coated with 100 μg/mL of human IgG (Sigma) overnight at 4° C. The next day, unbound IgG was washed away with cold 1×PBS. NK cells were then plated in the IgG-coated 96-well plates at 2×10^5 cells per well in 180 μL RPMI-1640 Media and 10 ng/mL of rhIL-2 (R & D Systems, MN) was added. Test compounds were added in a volume of […]. Final concentrations of test compounds were 0.0001, 0.001, 0.01, 0.1, 1, or 10 μM. Final DMSO concentrations were 0.25%. After 48 hours, the supernatants were harvested and analyzed by ELISA for IFN-γ production.
Data used to determine the ability of test compounds to enhance NK cell IFN-γ production in response to immobilized IgG and rhIL-2 stimulation was analyzed for each donor using GraphPad Prism v5.0 software.

[2] abbreviates: Endothelial cell, HGF 25 ng/mL, read-out: HGF-induced invasion IC50 Values.
Where [3] appears, read: Endothelial cell, VEGF 25 ng/mL, read-out: VEGF-induced invasion IC50 Values.
Setting [4] is: Endothelial cell, bFGF 10 ng/mL, read-out: bFGF-induced invasion IC50 Values.
The mark [5] stands for this setting: HUVEC, growth factor not given, read-out: IC50 (HUVEC invasion).
The mark [6] stands for this setting: LPS 1 ng/ml, 18 hours, read-out: MIP-1α IC50.

In general, IC50 refers to the concentration at which inhibition is half-maximal. In general, EC50 refers to the concentration giving half of the maximal effect. Higher therefore signals weaker potency. As to `O=C1CCC(N2Cc3c(OCc4ccc(CN5CCOCC5)cc4)cccc3C2=O)C(=O)N1` (racemic) [Racemate, 3-[4-(4-morphlin-4-ylmethylbenzyloxy)-1-oxo-1,3-dihydro-isoindo-2-yl]piperidine-2,6-dione], the IC50 in the test with MDC was 2.6 nM; in test [1] (setting [2]) it was 590 nM; in test [1] (setting [3]), 0.14 nM; in test [1] (setting [4]) it was 0.42 nM; in test [1] (setting [5]) it was 0.4 nM; with IL-6, 10 nM. Further, the IC50 came to 0.19 µM in the test with MIP-1α (18 h, read-out: MIP-1α IC50 (μM)) and 0.85 nM with IL-1β. Moreover, in test [1], the “VEGF-, bFGF-, and HGF-induced HUVEC invasion” value is “significantly inhibited”. The “IL-10 Mean % of Control” value in the test with IL-10 was 371 % of control. The compound further displayed an EC50 with NK cell IFN-γ production of 37 nM.
Take `O=C1CC[C@@H](N2Cc3c(OCc4ccc(CN5CCOCC5)cc4)cccc3C2=O)C(=O)N1` [R-enantiomer, (R)-3-[4-(4-morphlin-4-ylmethylbenzyloxy)-1-oxo-1,3-dihydro-isoindo-2-yl]piperidine-2,6-dione]: the IC50 with MDC was 12 nM; in test [1] (setting [2]), 450 nM; in test [1] (setting [3]), below 0.1 nM; in test [1] (setting [4]), 13 nM; in test [1] (setting [5]), 13 nM; in the test with IL-6, 83 nM. The IC50 in the test with MIP-1α (setting [6]) was 0.45 µM; in the test with IL-1β, 6.2 nM. For the same compound, the “VEGF-, bFGF-, and HGF-induced HUVEC invasion” value in test [1] was “significantly inhibited”. In addition, the “IL-10 Mean % of Control” value in the test on IL-10 is 442 % of control. In the test on NK cell IFN-γ production, this compound came in with an EC50 of 16 nM.
As for `O=C1CC[C@H](N2Cc3c(OCc4ccc(CN5CCOCC5)cc4)cccc3C2=O)C(=O)N1` [Test compound, (S)-3-[4-(4-morphlin-4-ylmethylbenzyloxy)-1-oxo-1,3-dihydro-isoindo-2-yl]piperidine-2,6-dione], the 50% inhibitory concentration (IC50) was 2.1 nM in the test on MDC; 19 nM in test [1] (setting [2]); below 0.1 nM in test [1] (setting [3]); below 0.1 nM in test [1] (setting [4]); below 0.1 nM in test [1] (setting [5]); 3.8 nM in the test on IL-6. Also, the IC50 amounted to 0.028 µM in the test on MIP-1α (setting [6]) and 0.46 nM with IL-1β. Further, the “VEGF-, bFGF-, and HGF-induced HUVEC invasion” value in test [1] is “significantly inhibited”. Moreover, the “IL-10 Mean % of Control” value with IL-10 is recorded as 379 % of control. In the test with NK cell IFN-γ production, this compound registered an EC50 of 12 nM.
